From US6576260B2 (Gruenenthal GmbH, priority 1999, dated 2003)

Test: Intrinsic active substance release in water (USP <1087> intrinsic dissolution)
Format: physicochemical
Settings: demineralized water, 37° C.±0.5° C.; gradient of cumulative release up to 10% released
Procedure: The intrinsic release of each of the two active substances is calculated from the gradient of the cumulative active substance release up to and including the time at which 10% of the […] have been released. It is given below as the release rate in mg·min^−1·cm^−2.

SMILES | Intrinsic release in water (release rate)
COc1cccc([C@@]2(O)CCCC[C@@H]2CN(C)C)c1.Cl (racemic) [Tramadol hydrochloride, (1RS,2RS)-2-[(dimethylamino)methyl]-1-(3-methoxyphenyl)cyclohexanol hydrochloride] | 21 mg · min^−1 · cm^−2
COc1cccc(C2(O)CCCCC2CN(C)C)c1.O=C1NS(=O)(=O)c2ccccc21 (centres unmarked) [Tramadol saccharinate, tramadol saccharinate] | 2 mg · min^−1 · cm^−2
